Test results published in US5834462A, “Tricyclic heterocyclic sulfonamide and sulfonic ester derivatives” (Eisai Co., Ltd., priority 1993, dated 1998).
In brackets after ≈: the same amount, converted by molar mass.

Legend:
[1] = system: KB cells (human nasopharyngeal cancer cells); experiment: in vitro Antitumor test on KB cells (MTT); assay type: cell-based; details: 72 h, 3 days incubation
Experimental: in vitro Antitumor test on KB cells (human nasopharyngeal cancer cells)
KB cells suspended in an RPMI1640 medium (mfd. by Nissui Seiyaku K. K.), which contained 10% of fetal calf serum, 100 U/mi of penicillin, 100 μg/ml of streptomycin, 5×10^-5 M of mercaptoethanol and 1 mM of sodium pyruvate, were inoculated in 1.25×10^3 portions (0.1 ml) into wells of a 96-well flat-bottomed microplate and then incubated in an incubator containing 5% of carbon dioxide at 37° C. for a day.
A compound of the present invention was dissolved in dimethyl sulfoxide in a concentration of 20 mg/ml and diluted with a 10% fetal calf serum-RPMI1640 culture medium to a concentration of 100 μg/ml. By using this concentration as the highest level, threefold serial dilution was performed with a 10% fetal calf serum-RPMI1640 culture medium. Then it was added in 0.1 ml portions into the wells of the above-mentioned plate wherein the KB cells had been incubated followed by incubation in the incubator containing 5% of carbon dioxide at 37° C. for 3 days.
After incubating, an MTT (3-(4,5-dimethylthiazol-2-yl)-2,5-diphenyltetrazolium bromide) solution (3.3 mg/ml) was added in 0.05 ml portions into the wells and the incubation was effected for additional 1 hour. After sucking off the supernatant from each well, the formazane thus formed was dissolved in 0.1 ml of dimethyl sulfoxide. Then the absorbance at 540 nm was measured with a microplate reader and employed as an indication of the vital cell count. In accordance with the following equation, the inhibitory ratio was calculated and the 50% inhibitory concentration (IC50) of the test compound was determined. [formula] T: absorbance of a well containing the test commpound. C: absorbance of a well containing no test compound.

[2] = system: M5076 (mouse reticulum cell sarcoma); experiment: in vivo antitumor test on M5076 transplanted in BDF1 mice; details: 50 mg/kg/day, intraperitoneal, 4 times every other day from 10th day
Description: in vivo antitumor test on M5076 (mouse reticulum cell sarcoma)
1×10^6 M5076 cells were subcutaneously transplanted into the lateral parts of BDF1 mice (aged 6 to 9 weeks, female). A compound of the present invention was suspended in physiological saline containing 3.5% of dimethyl sulfoxide and 6.5% of Tween 80 and a given amount of the obtained suspension was intraperitoneally administered to the animals 4 times from the 10th day after the transplantation once a day every other day. The control group comprised 10 to 12 animals, while the test group comprised 5 or 6 animals.
On the 21st day after the transplantation, tumors were taken out and weighed. Then the tumor multiplication inhibitory ratio of each test group based on the control group was determined in accordance with the following equation. [formula] T: average tumor weight of the test group. C: average tumor weight of the control group.

COc1ccc(S(=O)(=O)Nc2cccc3c2Nc2ccccc2S3)cc1 [Example 1, 4-Methoxy-N-(10H-phenothiazin-1-yl)benenesulfonamide]
IC50 [1]: 0.11 µg/mL (≈ 0.286 µM) | Inhibitory ratio (tumor weight, 21st day) [2]: 73% | Survival ratio on 21st day [2]: 100%
